# Laboratory results: ChEMBL document CHEMBL5260832, “Hepatoprotective natural triterpenoids” (Eur J Med Chem, 2018)
# System: Mus musculus
# Assay: Hepatoprotective activity against D-GaIN/CCl4 induced liver injury mouse model assessed as reduction in GPT level at 30 microg/kg, iv relative to control
# Type: functional
# Design: scale not given: the % may be the effect or the level left
# Settings: dose 30 µg/kg
row,Structure (SMILES),Activity [%]
1,CC(C)=CCC[C@](C)(O)[C@H]1CC[C@]2(C)[C@@H]1[C@H](O)C[C@@H]1[C@@]3(C)CC[C@H](O)C(C)(C)[C@@H]3[C@@H](O[C@@H]3O[C@H](CO)[C@@H](O)[C@H](O)[C@H]3O[C@@H]3O[C@H](CO)[C@@H](O)[C@H](O)[C@H]3O)C[C@]12C [GINSENOSIDE RF],77
2,CC(C)=CCC[C@](C)(O[C@@H]1O[C@H](CO)[C@@H](O)[C@H](O)[C@H]1O)[C@H]1CC[C@]2(C)[C@@H]1[C@H](O)C[C@@H]1[C@@]3(C)CC[C@H](O)C(C)(C)[C@@H]3CC[C@]12C,76
3,CC(C)=CCC[C@](C)(O)[C@H]1CC[C@]2(C)[C@@H]1[C@H](O)C[C@@H]1[C@@]3(C)CC[C@H](O[C@@H]4O[C@H](CO)[C@@H](O)[C@H](O)[C@H]4O)C(C)(C)[C@@H]3CC[C@]12C [GINSENOSIDE RH2],31
4,CC(C)=CCC[C@@](C)(O)[C@H]1CC[C@]2(C)[C@@H]1[C@H](O)C[C@@H]1[C@@]3(C)CC[C@H](O)C(C)(C)[C@@H]3[C@@H](O[C@@H]3O[C@H](CO)[C@@H](O)[C@H](O)[C@H]3O[C@@H]3O[C@@H](C)[C@H](O)[C@@H](O)[C@H]3O)C[C@]12C,50
5,CC(C)=CCC[C@@](C)(O)[C@H]1CC[C@]2(C)[C@@H]1[C@H](O)C[C@@H]1[C@@]3(C)CC[C@H](O[C@@H]4O[C@H](CO)[C@@H](O)[C@H](O)[C@H]4O[C@@H]4O[C@H](CO)[C@@H](O)[C@H](O)[C@H]4O)C(C)(C)[C@@H]3CC[C@]12C,34

# System: L02
# Assay: Hepatoprotective activity against D-GaIN-induced cell damage in human HL7702 cells assessed as increase in cell survival at 10 uM relative to control
# Type: functional
# Settings: not given
row,Structure (SMILES),Activity [%]
1,CC(CC(=O)C[C@@H](C)[C@H]1C[C@H](O)[C@@]2(C)C3=C(C(=O)C[C@]12C)[C@@]1(C)CC[C@H](O)C(C)(C)[C@@H]1C[C@@H]3O)C(=O)O (some centres undefined),76
2,C/C(=C/C(=O)CC(C)C(=O)O)[C@H]1CC(=O)[C@@]2(C)C3=C(C(=O)C[C@]12C)[C@@]1(C)CC[C@H](O)C(C)(C)[C@@H]1C[C@@H]3O (some centres undefined),65
3,C/C(=C\CCC(C)(O)[C@H]1C[C@H](O)[C@@]2(C)C3=C(C(=O)C[C@]12C)[C@@]1(C)CC[C@H](O)C(C)(C)[C@@H]1C[C@@H]3O)C(=O)O (some centres undefined),43
4,C/C(CC(=O)CC(C)C(=O)O)=C1/CC(=O)[C@@]2(C)C3=C(C(=O)C[C@]12C)[C@@]1(C)CC[C@H](O)C(C)(C)[C@@H]1CC3=O (some centres undefined),55
5,CC(=O)[C@H]1CC(=O)[C@@]2(C)C3=C(C(=O)C[C@]12C)[C@@]1(C)CCC(=O)C(C)(C)[C@@H]1C[C@@H]3O,58
6,CC(CC(=O)C[C@@H](C)C1=CC(=O)[C@@]2(C)[C@@H]3C(=O)C[C@H]4C(C)(C)[C@@H](O)CC[C@]4(C)[C@H]3C(=O)C[C@]12C)C(=O)O (some centres undefined),75

# System: not listed separately
# Assay: Antiproliferative activity against rat HSC-T6 cells assessed as reduction in cell viability incubated for 48 hrs by MTT assay
# Type: functional, cell-based
# Settings: HSC-T6, 48 h
row,Structure (SMILES),IC50 [µM]
1,CC1(C)CC[C@]2(N)C(=O)C[C@]3(C)C(=CC[C@@H]4[C@@]5(C)C[C@H](O)[C@H](O[C@@H]6O[C@H](CO)[C@@H](O)[C@H](O)[C@H]6O)C(CO)(CO)[C@@H]5CC[C@]43C)[C@@H]2C1,69.6
2,C[C@@H]1O[C@@H](O[C@H]2[C@H](OC(=O)[C@]34CCC(C)(C)C[C@H]3C3=CC[C@@H]5[C@@]6(C)C[C@H](O)[C@H](O[C@@H]7O[C@H](CO)[C@@H](O)[C@H](O)[C@H]7O)[C@](C)(CO)[C@@H]6CC[C@@]5(C)[C@]3(C)C[C@H]4O)OC[C@H](O)[C@@H]2O)[C@H](O)[C@H](O)[C@H]1O[C@@H]1OC[C@@H](O)[C@H](O[C@@H]2OC[C@](O)(CO)[C@H]2O)[C@H]1O,1.04
3,CC1(C)CC[C@]2(N)C(=O)C[C@]3(C)C(=CC[C@@H]4[C@@]5(C)C[C@H](O)[C@H](O)C(CO)(CO)[C@@H]5CC[C@]43C)[C@@H]2C1,5.27
4,C[C@@H]1O[C@@H](O[C@H]2[C@H](OC(=O)[C@]34CCC(C)(C)C[C@H]3C3=CC[C@@H]5[C@@]6(C)C[C@H](O)[C@H](O[C@@H]7O[C@H](CO)[C@@H](O)[C@H](O)[C@H]7O)C(CO)(CO)[C@@H]6CC[C@@]5(C)[C@]3(C)C[C@H]4O)OC[C@H](O)[C@@H]2O)[C@H](O)[C@H](O)[C@H]1O[C@@H]1OC[C@@H](O)[C@H](O)[C@H]1O,8.24
5,CC1(C)CC[C@]2(C(=O)O)[C@H](O)C[C@]3(C)C(=CC[C@@H]4[C@@]5(C)C[C@H](O)[C@H](O[C@@H]6O[C@H](CO)[C@@H](O)[C@H](O)[C@H]6O)C(CO)(CO)[C@@H]5CC[C@]43C)[C@@H]2C1,13.4
6,C[C@@H]1O[C@@H](O[C@H]2[C@H](OC(=O)[C@]34CCC(C)(C)C[C@H]3C3=CC[C@@H]5[C@@]6(C)C[C@H](O)[C@H](O[C@@H]7O[C@H](CO)[C@@H](O)[C@H](O)[C@H]7O)C(CO)(CO)[C@@H]6CC[C@@]5(C)[C@]3(C)C[C@H]4O)OC[C@H](O)[C@@H]2O)[C@H](O)[C@H](O)[C@H]1O[C@@H]1OC[C@@H](O)[C@H](O[C@@H]2OC[C@](O)(CO)[C@H]2O)[C@H]1O [PLATYCODIN D],1.77

# System: not listed separately
# Assay: Hepatotoxicity in D-GaIN induced in Wistar rat model hepatocyte assessed as reduction in PLA2 level
# Type: toxicity, cell-based
# Settings: not given
row,Structure (SMILES),IC50 [µM]
1,CC1(C)[C@@H](O[C@@H]2O[C@H](C(=O)O)[C@@H](O)[C@H](O)[C@H]2O[C@@H]2O[C@H](C(=O)O)[C@@H](O)[C@H](O)[C@H]2O)CC[C@]2(C)[C@H]3C(=O)C=C4[C@@H]5C[C@]6(C)C[C@@H](OC6=O)[C@]5(C)CC[C@@]4(C)[C@]3(C)CC[C@@H]12,32.2

# System: Hepatocyte
# Assay: Hepatoprotective activity against D-GaIN/TNFalpha-induced cell death in mouse hepatocyte at 100 uM relative to control
# Type: functional, cell-based
# Settings: Mus musculus, Hepatocyte
row,Structure (SMILES),IC50 [µM]
1,CC1=C2C3=CC[C@@H]4[C@@]5(C)C[C@@H](O)[C@H](O)[C@@](C)(CO)[C@@H]5CC[C@@]4(C)[C@]3(C)CC[C@@]2(C(=O)O)CC[C@H]1C,51

# System: not listed separately
# Assay: Hepatotoxicity in rat assessed as reduction in GPT level at 1.0 mg/mL measured after 48 hrs (reference value: 291 IU/L)
# Type: toxicity
# Settings: in vivo
row,Structure (SMILES),Activity [IU/L]
1,C[C@@]1(CO)CC[C@]2(C(=O)O[C@@H]3O[C@H](CO)[C@@H](O)[C@H](O)[C@H]3O)CC[C@]3(C)C(=CC[C@@H]4[C@@]5(C)CC[C@H](O)[C@@](C)(C(=O)O)[C@@H]5CC[C@]43C)[C@@H]2C1,206
2,CC1(C)CC[C@]2(C(=O)O[C@@H]3O[C@H](CO)[C@@H](O)[C@H](O)[C@H]3O)CC[C@]3(C)C(=CC[C@@H]4[C@@]5(C)CC[C@H](O)[C@@](C)(C(=O)O)[C@@H]5CC[C@]43C)[C@@H]2C1,137
3,CC1(C)CC[C@]2(C(=O)O[C@@H]3O[C@H](CO[C@@H]4O[C@H](CO)[C@@H](O)[C@H](O)[C@H]4O)[C@@H](O)[C@H](O[C@@H]4O[C@H](CO)[C@@H](O)[C@H](O)[C@H]4O)[C@H]3O)CC[C@]3(C)C(=CC[C@@H]4[C@@]5(C)CC[C@H](O)[C@@](C)(C(=O)O)[C@@H]5CC[C@]43C)[C@@H]2C1,279
4,CC1(C)CC[C@]2(C(=O)O[C@@H]3O[C@H](CO[C@@H]4O[C@H](CO)[C@@H](O)[C@H](O)[C@H]4O)[C@@H](O)[C@H](O[C@@H]4O[C@H](CO)[C@@H](O)[C@H](O)[C@H]4O)[C@H]3O)CC[C@]3(C)C(=CC[C@@H]4[C@@]5(C)CC[C@H](O[C@@H]6O[C@H](CO)[C@@H](O)[C@H](O)[C@H]6O)[C@@](C)(C(=O)O)[C@@H]5CC[C@]43C)[C@@H]2C1,279
5,CC1(C)CC[C@]2(C(=O)O[C@@H]3O[C@H](CO[C@@H]4O[C@H](CO)[C@@H](O)[C@H](O)[C@H]4O)[C@@H](O)[C@H](O)[C@H]3O)CC[C@]3(C)C(=CC[C@@H]4[C@@]5(C)CC[C@H](O[C@@H]6O[C@H](CO)[C@@H](O)[C@H](O)[C@H]6O)[C@@](C)(C(=O)O)[C@@H]5CC[C@]43C)[C@@H]2C1,279

# Species: Mus musculus
# Assay: Hepatoprotective activity in CCl4-induced toxicity in liver injured mouse assessed as increase in inhibition of liver damage relative to control
# Type: functional
# Design: concentration or dose not given beside the values
# Settings: not given
row,Structure (SMILES),Activity [%]
1,C[C@H]1[C@H](C)CC[C@]2(CO)CC[C@]3(C)C(=CC[C@@H]4[C@@]5(C)C[C@@H](O)[C@H](O)[C@@](C)(CO)[C@@H]5CC[C@]43C)[C@H]12,39.7
2,CC(=O)OC[C@@]1(C)[C@@H]2CC[C@]3(C)[C@H](C(=O)C=C4[C@@H]5[C@@H](C)[C@H](C)CC[C@]5(C(=O)O)CC[C@]43C)[C@@]2(C)CC(=O)[C@@H]1O,35.9
3,COC(=O)[C@]12CC[C@@H](C)[C@H](C)[C@H]1C1=CC[C@@H]3[C@@]4(C)CC(=O)[C@H](O)[C@@](C)(COC(C)=O)[C@@H]4CC[C@@]3(C)[C@]1(C)CC2,46.4
4,COC(=O)[C@]12CC[C@@H](C)[C@H](C)[C@H]1C1=CC[C@@H]3[C@@]4(C)C[C@@H](OC(C)=O)[C@H](O)[C@@](C)(COC(C)=O)[C@@H]4CC[C@@]3(C)[C@]1(C)CC2,54.2
5,CC(=O)OC[C@@]1(C)[C@@H]2CC[C@]3(C)[C@H](C(=O)C=C4[C@@H]5[C@@H](C)[C@H](C)CC[C@]5(C(=O)O)CC[C@]43C)[C@@]2(C)CC(=O)[C@@H]1OC(C)=O,22
6,C[C@H]1[C@H](C)CC[C@]2(C(=O)O)CC[C@]3(C)C(=CC(=O)[C@@H]4[C@@]5(C)C[C@@H](O)[C@H](O)[C@@](C)(CO)[C@@H]5CC[C@]43C)[C@H]12,25.6

# System: Hepatocyte
# Assay: Hepatoprotective activity against D-GaIN/TNFalpha -induced cell death in mouse hepatocyte assessed as inhibition of cell death
# Type: functional, cell-based
# Design: Activity: concentration or dose not given beside the values
# Settings: not given
row,Structure (SMILES),Activity [%]
1,C[C@@H]1C(=O)O[C@H]2[C@@H]1O[C@]13O[C@@]4(CC[C@]5(C)C(=O)[C@](C)(O)[C@@]2(O)[C@H]15)C[C@]12OC(=O)C[C@H]1OC(C)(C)[C@@H]2C[C@@H]1O[C@@]14C3=O,37.6
2,CC1=CC[C@H]([C@@H](C)[C@H]2CC[C@@]3(C)CCC[C@H]4C(C)(C)O[C@@H]5CC(=O)O[C@@]54CC(=O)[C@H](O)C[C@]23C)OC1=O,37.6
3,C[C@@H]1C(=O)O[C@H]2[C@@H]1O[C@]13O[C@@]4(CC[C@]5(C)C(=O)[C@@](C)(O)[C@H]2[C@H]15)C[C@]12OC(=O)C[C@H]1OC(C)(C)[C@@H]2C[C@@H]1O[C@@]14C3=O,37.6

# Same assay, conditions: Mus musculus, Hepatocyte
row,Structure (SMILES),IC50 [µM]
1,C=C(C)[C@@H]1CC[C@]2(C(=O)O)CC[C@]3(C)[C@H](CC[C@@H]4[C@@]5(C)C[C@@H](O)[C@H](O)[C@](C)(CO)[C@@H]5[C@H](O)C[C@]43C)[C@@H]12,51.2
